3 substances from patent US20100056431A1, “MEDICAL USES” (priority 2006, published 2010) can be followed below.

The subject of experiment [1] is phosphorylated MAPK. In words: Competitive inhibition of LL-37 on Heregulin-induced MAPK phosphorylation in MCF7 cells (Western blot). It counts as cell-based, human. As to conditions: Heregulin 2 ng/ml. The method, then:
Heregulin (2 ng/ml) was added to the breast cancer line MCF7, which produces virtually no LL-37 on its own, together with LL-37 (2 μM) and LL-25 at concentrations as indicated. In the control experiments, the solvent (PBS), or LL-37, LL-25 or heregulin (HRG) were added as the only substrates. The quantitative evaluation of triplicate measurements is shown together with the Western blot of one of the triplicates.
ZR75-1 ells were grown in Optimem and 10% FCS, and plated in 12-well plates at 100 000 cells/well, corresponding 70% confluency. After reattachment, cells were starved for 48 hours in DMEM, no FCS. Test substrate dissolved in 50 μl PBS were added to the medium, and cells were incubated for 20 min. […] The signal was captured in a CCD camera (Fuji, Tokyo, Japan) for 1 min, and evaluated by Image Gauge Software. For quantification, the signals were normalized against the Ponceau S staining that had been scanned in and quantified using the same software.
In a further experiment, Heregulin (2 ng/ml) was added to the breast cancer line MCF7, which produces virtually no LL-37 on its own, together with exogenous LL-37 (2 μM) and LL-25 at concentrations as indicated. […] The quantitative evaluation of triplicate measurements is shown together with the Western blot of one of the triplicates.
Background: Immunoblotting shows a protein as a band on a membrane.

The test system of experiment [2] is phosphorylated MAPK 1/2. In words: Heregulin-induced MAPK phosphorylation in ZR75-1 cells (Western blot). It counts as cell-based, human. As to conditions: ZR75-1 cells (LL-37 expressing), Heregulin 2 ng/ml, 20 min. The procedure:
ZR75-1 cells were treated for 20 min with Heregulin (2 ng/ml), LL-25 or LL-37 or in combination as indicated. Protein extracts were analysed by Western blot analysis against phosphorylated MAPK.
ZR75-1 ells were grown in Optimem and 10% FCS, and plated in 12-well plates at 100 000 cells/well, corresponding 70% confluency. After reattachment, cells were starved for 48 hours in DMEM, no FCS. Test substrate dissolved in 50 μl PBS were added to the medium, and cells were incubated for 20 min. The stimulation was stopped by washing the cells with ice-cold PBS containing 1 mM NaF, 100 μM Na3VO4, and 2 mM PMSF, and then lysed in 300 μl SDS lysis buffer containing the inhibitors as above. Proteins were separated in an 8% gel, and blotted to nitrocellulose filters according to standard conditions. Filters were reversibly stained with 3% Ponceau S, blocked with 4% NFDM in TBS/0.1% Tween20, and incubated o.n. with the primary antibody. For detection of phosphorylated MAPK 1/2 (pThr 202/pTyr 204), a monoclonal antibody (Cell Signaling Inc) was used at 1/2000. […] The signal was captured in a CCD camera (Fuji, Tokyo, Japan) for 1 min, and evaluated by Image Gauge Software. For quantification, the signals were normalized against the Ponceau S staining that had been scanned in and quantified using the same software.

The nature of experiment [3]: Antibacterial assay of synthetic LL-37 peptide. The text has this: LL-37 peptide was synthesised and purified by HPLC to a purity of 98% (PolyPeptide Laboratories A/S, Hillerød, Denmark). Biological activity of the peptide was confirmed in an antibacterial assay ^18.
In experiment [4] the test system is HaCaT cells. Nature of the experiment: LL-37 peptide treatment of epithelial cells, proliferation by [3H]-Thymidine incorporation. It counts as cell-based, human. The conditions noted are these: serum starved 72 hours, LL-37 10 μg/ml, DMEM+5% FCS, versus non treated control. The method, then:
A spontaneously immortalised human keratinocyte cell line (HaCaT) ^19 was cultured in DMEM (Dulbecco's modified Eagle's medium, Gibco BRL, Life Technologies, Scotland) supplemented with 10% FCS (fetal calf serum, Hy-Clone, Boule Nordic AB Huddinge, Sweden) and antibiotics (PEST=penicillin 50 U/l and streptomycin […], Gibco BRL). Cells were harvested at 70% confluence and seeded in 96-well plates, 2000 cells in 100 μl medium (DMEM+10% FCS and PEST). After 12 hours, medium was changed to serum free medium (DMEM+PEST) and cells were synchronized in G0/G1 by serum starvation for 72 hours and then treated with 100 μl of medium (DMEM+5% FCS+PEST) containing synthetic biologically active LL-37 peptide at 10 μg per ml. Cells treated with only DMEM+5% FCS and PEST served as control. The experiments were performed in quadruplicates. Cell proliferation was evaluated by [^3H]-Thymidine incorporation. Cells were treated with 1 μCi/well of [^3H]-Thymidine (20.00 Ci/mmol, Perkin Elmer Life Sciences Inc. Boston, Mass.) during 12 hours and harvested (Harvester 96, Tomtec, Orage, Conn.) onto a glass fiber filter (Wallac Oy Turku, Finland). The incorporation of [^3H]-Thymidine was determined using a liquid scintillation counter (Microbeta Pluss, Wallac Sveriges AB). The experiment was repeated twice in 6 replicates.

For experiment [5], the system named is ERK1/2. In words: Assay of phosphorylated ERK1/2 in LL-37 treated HaCaT cells (Western blot). The experiment is classed as cell-based, human. As to conditions: LL-37 10 μg/ml, 48 hours, 1% or 5% FCS. The procedure: HaCaT cells were seeded at 10% confluence and kept in DMEM with 0.2% FCS for 36 hours. For the next 48 hours, cells were cultured in DMEM with 1% or 5% FCS respectively, and in presence or absence of LL-37 at 10 μg/ml, with daily changes of medium. EGF at 10 ng/ml served as positive control. The expression of phosphorylated ERK 1/2 was evaluated by Western blot analysis with a mouse monoclonal antibody (Cell Signaling Technology, Beverly Mass.).

The test system of experiment [6] is HaCaT cells. In words: Pertussis toxin assay (LL-37 induced HaCaT cell proliferation). The experiment is classed as cell-based, human. As to conditions: pertussis toxin 20 ng/ml preincubated 24 h before LL-37 at 5 or 10 μg per ml, data not shown. The procedure:
To assess the involvement of FPRL1 in mediating the stimulation of epithelial cell proliferation induced by hCAP18/LL-37, HaCaT cells were treated with the G-protein-coupled receptor inhibitor pertussis toxin. Cells were preincubated with pertussis toxin (Sigma-Aldrich, Switzerland) 24 h before the LL-37 treatment in a final toxin concentration of 20 ng/ml. Medium was changed 48 hours after cell seeding and the HaCaT cells were treated with 100 μl of medium (DMEM+5% FCS and PEST) containing synthetic biologically active LL-37 peptide at 5 or 10 μg per ml respectively. Cells treated with only DMEM+5% FCS and PEST served as control.

“Also recorded” adds a separate entry of the source.

Consider “LLGDFFRKSKEKIGKEFKRIVQRIK (listed as Homo sapiens) [LL-25, N-terminal 25 amino acids of the C-terminal LL-37 peptide derived from human cathelicidin antimicrobial protein hCAP18]”, for which the “blocking of the endogenous LL-37 contribution to MAPK activation through HRG” value in experiment [1] was “can significantly be blocked by LL-25”. Moreover, the “inhibition of LL-37 on Heregulin-induced MAPK phosphorylation” value in experiment [1] (exogenous LL-37 2 μM, LL-25 at varied concentrations) was “competitive and highly efficient inhibitor to LL-37, even at 10% of the concentration of LL-37”. Moreover, in experiment [2], the “effect on MAPK phosphorylation through Heregulin” value is “inhibits MAPK phosphorylation”.

As to “LLGDFFRKSKEKIGKEFKRIVQRIKDFLRNLVPRTES (listed as Homo sapiens) [LL-37, C-terminal peptide of human cathelicidin antimicrobial protein hCAP18; synthesised, HPLC purity 98%]”, the “biological activity in antibacterial assay” value in experiment [3] was “confirmed”. In addition, the “cell proliferation ([3H]-Thymidine incorporation)” value in experiment [4] is on record as “significantly increased cell proliferation; also recorded: significant increase in cell proliferation”. In addition, the “activation of ERK1/2 (phosphorylated ERK1/2)” value in experiment [5] is “no significant activation of ERK1/2”.

Take pertussis toxin: in experiment [6], the “suppression of LL-37 stimulated proliferation by pertussis toxin pretreatment” value was “approximately 50%”.
